Results: patent publication US12606816B2, “Inhibitory T cell receptor peptides and discovery methods” (JANUX THERAPEUTICS, INC., priority 2018, dated 2026)

Tested on: MAGE-A3 TCR / MAGE-A3 pMHC
Assay: not given
Conditions: read-out: ELISA | IC50 | uM

Substance | IC50 [µM]
LVWGCIWDDMCSGGGGS[PEG4]Lys(biotin)-NH2 | > 100
GGHCFVSPASGEWWCVGGGGS[PEG4]Lys(biotin)- NH2 | > 100
GGVSCKDVYDEAFCWTGGGGS[PEG4]Lys(biotin)- NH2 | 0.6

Tested on: gp100 TCR
Assay: not given
Conditions: read-out: ELISA | EC50 | uM

Substance | EC50 [µM]
GGLCRAVEDMWVTSCMGGGGS[PEG4]Lys(biotin)-NH2 | 4.04
GGYCPLSYSQYDSPCYGGGGS[PEG4]Lys(biotin)-NH2 | 0.1
GGFCRYVRYEFWDLCMGGGGS[PEG4]Lys(biotin)-NH2 | 0.54
GGHCYDTHSFPMYVCLGGGGS[PEG4]Lys(biotin)-NH2 | 2.58
GGICYDYMSGYDVVCMGGGGS[PEG4]Lys(biotin)-NH2 | 0.11
GGCHWEHVWGAGSFFCGGGGS[PEG4]Lys(biotin)-NH2 | 1.26
GGYCYYDIDLDQFLCNGGGGS[PEG4]Lys(biotin)-NH2 | 0.23
GGDICQWVRSMTECSWGGGGS[PEG4]Lys(biotin)-NH2 | 0.17
GGYDCNYDPSSHTCFYGGGGS[PEG4]Lys(biotin)-NH2 | 0.12

Target: HIV pMHC binding to anti-HIV TCR
Assay: not given
Conditions: read-out: ELISA | IC50 | uM

Substance | IC50 [µM]
GGAFCVDTKPGLVCFEGGGGS[PEG4]Lys(biotin)- NH2 | 112

Tested on: MAGE-A3 TCR
Assay: not given
Conditions: read-out: ELISA | EC50 | uM

Substance | EC50 [µM]
GGESCQSVYDSSFCYDGGGGS[PEG4]Lys(biotin)- NH2 | 0.1
VRTWFEKFPELVGGGGS[PEG4]Lys(biotin)-NH2 | 0.67
GGTFCYFDHGLVNCQWGGGGS[PEG4]Lys(biotin)- NH2 | 0.5
LVWGCIWDDMCSGGGGS[PEG4]Lys(biotin)-NH2 | 0.1
GGCSWIFDGLRYFSKCGGGGS[PEG4]Lys(biotin)- NH2 | 0.15
GGNQCWEVYDQEFCSLGGGGS[PEG4]Lys(biotin)- NH2 | 0.05
GGRICEEVYDWIFCESGGGGS[PEG4]Lys(biotin)- NH2 | 0.31
GGNACEMTYDHTFCDPGGGGS[PEG4]Lys(biotin)- NH2 | 0.17
GGRRCVDVYDNAFCLIGGGGS[PEG4]Lys(biotin)- NH2 | 0.25
GGHCFVSPASGEWWCVGGGGS[PEG4]Lys(biotin)- NH2 | 0.08
GGSLCSLVYDQDFCESGGGGS[PEG4]Lys(biotin)- NH2 | 0.16
GGVSCKDVYDEAFCWTGGGGS[PEG4]Lys(biotin)- NH2 | 0.01
GGNSCSLVYDKAFCLFGGGGS[PEG4]Lys(biotin)- NH2 | 0.43
GGSACSRIYDFAFCHTGGGGS[PEG4]Lys(biotin)- NH2 | 0.33
GGTSCAQIYDFEFCYSGGGGS[PEG4]Lys(biotin)- NH2 | 0.17

Tested on: HIV TCR
Assay: not given
Conditions: read-out: ELISA | EC50 | uM

Substance | EC50 [µM]
GGVTCNDGKIFYLCSDGGGGS[PEG4]Lys(biotin)- NH2 | 0.63
GGVTCSLGNVFYLCHDGGGGS[PEG4]Lys(biotin)- NH2 | 0.39
GGAFCVDTKPGLVCFEGGGGS[PEG4]Lys(biotin)- NH2 | 0.26
GGVICTADGVYWLCDLGGGGS[PEG4]Lys(biotin)- NH2 | 1.29
GGATCHLDNVYFLCDIGGGGS[PEG4]Lys(biotin)- NH2 | 0.34
GGIECYPGFWALDCLYGGGGS[PEG4]Lys(biotin)- NH2 | 0.43
GGMLCNEGYWALSCFLGGGGS[PEG4]Lys(biotin)- NH2 | 0.69
GGTTCLEGGVYFLCADGGGGS[PEG4]Lys(biotin)- NH2 | 0.74
GGLTCSSQNIYYLCSDGGGGS[PEG4]Lys(biotin)- NH2 | 0.4
GGQLCPEGYYALMCTDGGGGS[PEG4]Lys(biotin)- NH2 | 0.15
GGLVCNDGVVFWLCDSGGGGS[PEG4]Lys(biotin)- NH2 | 0.81
GGQTCIADNVYYLCPEGGGGS[PEG4]Lys(biotin)- NH2 | 0.82
GGSNCYSLEPWIYCDTGGGGS[PEG4]Lys(biotin)- NH2 | 0.5
GGFTCVDGQVYYLCDSGGGGS[PEG4]Lys(biotin)- NH2 | 0.69
GGLVCNDGNIWWLCEDGGGGS[PEG4]Lys(biotin)- NH2 | 0.88
GGGTCFHGNTYFLCEDGGGGS[PEG4]Lys(biotin)- NH2 | 0.29

Tested on: Mage-A3 sTCR
Assay: kdis (1/s)
Conditions: not given
Description: Table printed on a drawing sheet, FIG. 4B
Head of the field: kdis (1/s)

Substance | kdis [s⁻¹]
VSCKDVYDEAFCW [Inhibitory peptide 1] | 0.0282
